In brackets after ≈: the same amount, converted by molar mass. Several values for one entry are separate records, joined by “and”; a condition that tells them apart may be missing. Identical values can stand only once.
Legend:
[1] = system: B. cinerea (isolated from grapes); assay: In vitro antifungal activity, broth microdilution (MIC100); assay type: cell-based, Botrytis cinerea; details: B. cinerea
Protocol: (§1) Fungal growth was assessed at six concentrations (3.1–100 μg/mL), using enriched Czapek broth in the presence of triazole 1-8 (Fig. 2). Each treatment was carried out in triplicate. The Minimum Inhibitory Concentration (MIC100) was determined and was defined as the minimum concentration required to inhibit the complete fungal growth inhibition under the conditions of the assay. Triadimefon (TDM) and cyproconazole (CPZ) were used as positive control. In order to evaluate the efficacy of the new compounds to control fungi affecting vineyards, imperfect fungi isolated from infected grapes from the province of San Juan in Argentina were employed. Significant differences were determined by t-Student hypothesis test p, at 95% confidence. In general, moderate to good activity was observed compared to the reference compounds as well as some selectivity against microorganisms.
(§2) The imperfect fungi used for the assays included Botrytis cinerea isolated from grapevine samples, Aspergillus fumigatus (ATTC 26934), A. niger (ATCC 9029), A. ustus (PN-S4), A. japonicus (M15C), A. terreus (M16C) and Fusarium oxysporum (M15-Pa) isolated from soil samples from the province of San Juan, Argentina. The microorganisms were grown on Czapek-yeast extract agar (CYA) prepared with yeast extract, K2HPO4, saccharose, agar, distilled water and enriched with a solution of mineral salts (NaNO3, KCl, MgSO4.7H2O and FeSO4.7 H2O). Inocula were adjusted to 1–5 × 10^4 colony forming units (CFU/ mL).
(§3) The minimum inhibitory concentration (MIC) of each compound was evaluated using broth microdilution techniques in 96-well microtiter plates according to the guidelines of the National Committee for Clinical Laboratory Standards for filamentous fungi M 38 A. The starting inoculum was 1–5 × 10^4 CFU/mL in accordance with the Clinical and Laboratory Standards Institute (CLSI, formerly the National Committee for Clinical Laboratory Standards [NCCLS]) (M27-A3 document for yeasts, and M38-A2 document for filamentous fungi).
(§4) Microtiter plates were incubated at 30 °C for Aspergillus and Fusarium, and 22 °C for B. cinerea in a moist and dark chamber. MIC values were recorded after 48 h for Aspergillus and Fusarium spp., and after 72 h for B. cinerea, according to the fungal growth control. TDM and CPZ were used as positive controls (12.5–50 μg/mL). Stock solutions were two-fold diluted with RPMI from 1000 to 0.98 μg/mL (final volume equal to 100 μL), and a final DMSO concentration ≤ 1%. An inoculum suspension (100 μL) was added to each well with the exception of the sterility control. Endpoints were defined as the lowest compound concentration resulting in total growth inhibition (MIC100) compared to the growth in control wells. MICs values ≤ 50 μg/mL were considered of interest. The assay was carried out in triplicate.

[2] = system: Aspergillus fumigatus (ATTC 26934); assay: as above; assay type: cell-based; details: A. fumigatus, 30 °C, 48 h, total growth inhibition
Protocol: as §1, §2, §3, §4

[3] = system: Fusarium oxysporum (M15-Pa); assay: as above; assay type: cell-based; details: 30 °C, 48 h, total growth inhibition
Protocol: as §1, §2, §3, §4

A. japonicus (M15C) = assay: as above; assay type: cell-based, Aspergillus japonicus; details: 48 h; for Fungicidal activity MIC100, AJ: A. japonicus, 30 °C, total growth inhibition
Protocol: as §1, §2, §3, §4

A. niger (ATCC 9029) = assay: as above; assay type: cell-based, Aspergillus niger; details: 48 h, total growth inhibition; for Fungicidal activity MIC100, AN: 30 °C
Protocol: as §1, §2, §3, §4

A. terreus (M16C) = assay: as above; assay type: cell-based, Aspergillus terreus; details: 48 h; for Fungicidal activity MIC100, AT: A. terreus, 30 °C, total growth inhibition
Protocol: as §1, §2, §3, §4

A. ustus (PN-S4) = assay: as above; assay type: cell-based, Aspergillus ustus; details: 30 °C, 48 h, total growth inhibition
Protocol: as §1, §2, §3, §4

[4] = system: human lung fibroblasts MRC-5; assay: Cytotoxicity, neutral red uptake assay; assay type: cell-based; details: MRC-5 fibroblasts, 24 h exposure, neutral red uptake; ± SD; read-out: Cytotoxicity IC50
Protocol: (§5) The cytotoxic effect of the compounds, expressed as cell viability, was assessed on a permanent fibroblast cell line derived from human lung (MRC-5) (ATCC CCL-171). MRC-5 fibroblasts were grown as monolayers in minimum essential Eagle medium (MEM) with Earle’s salts, 2 mM l-glutamine and 2.2 g/L sodium bicarbonate, supplemented with 10% heat inactivated fetal bovine serum (FBS), 100 IU/mL penicillin and 100 µg/mL streptomycin in a humidified incubator with 5% CO2 in the air at 37 °C. Cell passage was maintained between 10 and 16. The medium was changed every 2 days.
(§6) Confluent cultures of MRC-5 fibroblasts were treated with medium containing the compounds at concentrations ranging from 0 to 1000 µM. For comparison purposes, the commercial antifungals CPZ and TDM were used as references, the products were first dissolved in DMSO and then in MEM, supplemented with 2% FBS. The final content of DMSO in the test medium and controls was 1%. Cells were exposed for 24 h to the test medium with or without the compound (control). Each concentration was tested in quadruplicate together with the control, and repeated three times in separate experiments. At the end of the incubation, the neutral red uptake (NRU) assay was carried out. To calculate the IC50 values (concentration that produces a 50% inhibitory effect on the evaluated parameter), the results were transformed to percentage of controls and the IC50 values were graphically obtained from the dose–response curves.

B. cinerea = assay: In vivo antifungal activity on infected grapes under greenhouse conditions; design: species or system Botrytis cinerea on Vitis vinifera grapes; details: 7 days; for Efficacy (preventive rate) against B. cinerea on grapes: 2.5 µg/mL; for Efficacy (control effectiveness) against B. cinerea on grapes: 12.5 μg/mL
Protocol: The potential usefulness of compound 4 against B. cinerea was assessed under greenhouse conditions using infected grapes (in vivo), at 7 days of exposure. The compound was evaluated at 2.5 μg/mL and 12.5 μg/mL, CPZ was used as positive control (at 12.5 μg/mL). […] The blank control (untreated grapes) was completely affected by B cinerea (100% incidence) (Fig. 4).
The in vivo activity was determined on the Vitis vinifera grapes inoculated with a Botrytis cinerea conidia suspension. Appropriate amounts of the tested compounds were dissolved in DMSO and then suspended in the distilled water (DMSO concentration < 2%).
Healthy grapes, previously washed with a diluted solution of sodium hypochlorite, were punctured with 100 ⎧L of a solution of compound 4 (concentration of 12.5 ⎧g/mL and 2.5 ⎧g/mL) and evaporated at room temperature (~ 25 °C) during 24 h to favour the penetration of the compound. The same procedure was carried out with CPZ and the control blank (< 2% DMSO solution). The grapes epidermis was punctured with a sterile inoculation needle (Ø, 4.5 mm), 200 µL of the pathogen was inoculated at a concentration of 5.10^4 UFC/mL. The fruits were incubated at 20 °C to favour fungal growth, and fungal growth was assessed 7 days later. CPZ was used as positive control under the same conditions. The control effectiveness of the target compound was calculated as (1 − c/d) × 100, where c is the diameter of the treatment and d is the diameter of the blank control (˂ 2% DMSO solution).

[5] = Cytotoxicity, neutral red uptake assay; assay type: cell-based, human; details: human
Protocol: as §5, §6

B. cinerea hyphae = assay: Effect on B. cinerea hyphal morphology (optical microscopy); assay type: cell-based, Botrytis cinerea; details: 12.5 μg/mL
Protocol: Changes in the hyphae morphology of B. cinerea treated with compound 4 were observed using optical microscopy.
The same procedure was carried out with CPZ and blank control (< 2% DMSO solution).

[6] = 22 °C, 72 h, total growth inhibition

Row | Compound | Fungicidal activity MIC100, BC [1, 6] [µg/mL] | Fungicidal activity MIC100, AF [2] | Fungicidal activity MIC100, F [3] [µg/mL] | Fungicidal activity MIC100, AJ (A. japonicus (M15C)) [µg/mL] | Fungicidal activity MIC100, AN (A. niger (ATCC 9029)) [µg/mL] | Fungicidal activity MIC100, AT (A. terreus (M16C)) | Fungicidal activity MIC100, AU (A. ustus (PN-S4)) [µg/mL] | IC50 [4] [µM] | Efficacy (preventive rate) against B. cinerea on grapes (B. cinerea) [%] | Efficacy (control effectiveness) against B. cinerea on grapes (B. cinerea) [%] | MIC100 (complete growth inhibition) ([1]; Botrytis cinerea, 22 °C, 72 h, total growth inhibition, read-out: Fungicidal activity MIC100, BC) [µg/mL] | MIC ([1]; Botrytis cinerea, molar conversion of the µg/mL value, read-out: MIC100 against B. cinerea expressed) [µM] | Minimum inhibitory concentration (MIC100) ([2]; Aspergillus fumigatus, read-out: Fungicidal activity MIC100, AF) [µg/mL] | MIC100 (minimum concentration for complete growth inhibition) ([3]; Fusarium oxysporum, F. oxysporum, read-out: Fungicidal activity MIC100, F) [µg/mL] | MIC (A. japonicus (M15C); read-out: Fungicidal activity MIC100, AJ) [µg/mL] | MIC100 (complete growth inhibition) (A. niger (ATCC 9029); Aspergillus niger, ATCC9029, 30 °C, read-out: Fungicidal activity MIC100, AN) [µg/mL] | MIC100 (complete growth inhibition) (A. terreus (M16C); Aspergillus terreus, read-out: Fungicidal activity MIC100, AT, A. terreus, 30 °C, total growth inhibition) [µg/mL] | MIC100 (complete growth inhibition) (A. ustus (PN-S4); Aspergillus ustus, read-out: Fungicidal activity MIC100, AU) [µg/mL] | IC50 at 24 h [5] [µM] | Hyphal morphology of B. cinerea (B. cinerea hyphae)
1 | 1-(4-chlorophenyl)-3-cyclopropyl-2-(1H-1,2,4-triazol-1-yl)butan-1-ol [CPZ, reference compound] | 12.5 ± 0.8 | 25 µg/mL and 25 ± 1.4 µg/mL | ≥ 100 | 25 ± 1.3 | 25 ± 1.5 | 15.0 µg/mL and 15 ± 0.9 µg/mL | 15 ± 0.7 | 267 ± 18.7 | 38.3 | 75.3 | – | – | – | – | – | – | – | – | – | –
2 | CC(C1CC1)C(O)(Cn1cncn1)c1ccc(-c2ccc(F)cc2)cc1 (stereo not shown) [Compound 4, 3-Cyclopropyl-2-(4’-fluorobiphenyl-4-yl)-1-(1H-1,2,4-triazol1-yl)butan-2-ol] | 12.5 ± 0.9 | 12.5 ± 0.8 µg/mL | – | 15 ± 0.7 | 10 ± 0.5 | 10 ± 0.4 µg/mL | 14 ± 0.7 | – | 50.6 | 100 | 12.5 (≈ 35.6 µM) | 35.5 (≈ 12.5 µg/mL) | 12.5 (≈ 35.6 µM) | ≥ 100 | 15 (≈ 42.7 µM) | 10 (≈ 28.5 µM) | 10 (≈ 28.5 µM) | 14 (≈ 39.8 µM) | 61.1 ± 3.7 | morphological alterations, including irregular hyphae, variable diameter and the presence of internal vacuoles
